Experiments:
Experiment in all cases: relative viability (nuclei count vs DMSO), 5 days (fraction); higher = more cells survive
BAM7 + Vorinostat = compound: CCOC1=CC=CC=C1N=NC2=C(NN(C2=O)C3=NC(=CS3)C4=CC=CC=C4)C [BAM7] + O=C(CCCCCCC(=O)Nc1ccccc1)NO [Vorinostat] (partner 1 µM)
Outline: (§1)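 Relative viability is defined as nuclei in treated wells over nuclei in vehicle wells. Duplicate plates were run and medians reported. Lung cancer cell lines in 1536-well plates were dosed by pin tool one day after seeding, with one drug or with a fixed anchor-drug dose plus five library-drug doses (not always all listed) in √10 steps, and nuclei were counted after 5 days.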

[1] = compound: CCn1c(-c2nonc2N)nc2c(C#CC(C)(C)O)ncc(OC[C@H]3CCCNC3)c21 + Cc1nc(NC(=O)N2CCC[C@H]2C(N)=O)sc1-c1ccnc(C(C)(C)C(F)(F)F)c1 [Alpelisib] (partner 2 µM)
Outline: as §1

BAM7 + Phenformin = compound: CCOC1=CC=CC=C1N=NC2=C(NN(C2=O)C3=NC(=CS3)C4=CC=CC=C4)C [BAM7] + N=C(N)NC(=N)NCCc1ccccc1 [Phenformin] (partner 250 µM)
Outline: as §1

BAM7 + Linsitinib = compound: CCOC1=CC=CC=C1N=NC2=C(NN(C2=O)C3=NC(=CS3)C4=CC=CC=C4)C [BAM7] + C[C@]1(O)C[C@@H](c2nc(-c3ccc4ccc(-c5ccccc5)nc4c3)c3c(N)nccn32)C1 [Linsitinib] (partner 1 µM)
Outline: as §1

Question: With UMC-11 as the cell line, how does the relative viability (BAM7 + Vorinostat; first compound 0.5 µM) read?
Answer: Its relative viability is 0.37.

Question: And the relative viability (BAM7 + Vorinostat; first compound 5 µM)?
Answer: Its relative viability is 0.478.

Question: And the relative viability (BAM7 + Vorinostat; first compound 15.81 µM)?
Answer: Its relative viability is 0.469.

Question: What about the relative viability (BAM7 + Vorinostat; first compound 50 µM) of the same cell line?
Answer: The relative viability was 0.362.

Question: What about the relative viability ([1]; first compound 0.01 µM) of the same cell line?
Answer: The relative viability was 1.04.

Question: And the relative viability ([1]; first compound 0.03162 µM)?
Answer: The relative viability was 0.974.

Question: And the relative viability ([1]; first compound 0.1 µM)?
Answer: The relative viability was 0.969.

Question: And the relative viability ([1]; first compound 0.3162 µM)?
Answer: The relative viability was 0.96.

Question: What about the relative viability ([1]; first compound 1 µM) of the same cell line?
Answer: The relative viability was 0.976.

Question: What about the relative viability (BAM7 + Phenformin; first compound 0.5 µM) of the same cell line?
Answer: Its relative viability is 0.336.

Question: And the relative viability (BAM7 + Phenformin; first compound 5 µM)?
Answer: The relative viability was 0.371.

Question: And the relative viability (BAM7 + Phenformin; first compound 15.81 µM)?
Answer: The relative viability was 0.311.

Question: What about the relative viability (BAM7 + Phenformin; first compound 50 µM) of the same cell line?
Answer: Its relative viability is 0.312.

Question: What about the relative viability (BAM7 + Linsitinib; first compound 0.5 µM) of the same cell line?
Answer: The relative viability was 1.12.

Question: And the relative viability (BAM7 + Linsitinib; first compound 5 µM)?
Answer: The relative viability was 1.05.

Question: And the relative viability (BAM7 + Linsitinib; first compound 15.81 µM)?
Answer: The relative viability was 1.07.

Question: What about the relative viability (BAM7 + Linsitinib; first compound 50 µM) of the same cell line?
Answer: The relative viability was 1.09.

From the supplement of paper PMC10307832
